System: rat-transient focal cerebral ischemia model
Assay: Rat-transient focal cerebral ischemia model (middle cerebral artery closure 2 h, TTC staining)
Format: in vivo
Conditions: injectable solution, intravenously two times (immediately after and 30 minutes after restoration of blood flow), 3 mg/kg

**Q.** For CC1=NN(c2ccccc2)C(=O)C1 [3-methyl-1-phenyl-2-pyrazolin-5-one], which “effect on area of cerebral infarction compared with the control group (in words)” value is on record?
**A.** almost same as that of the control group

From patent publication US8076368B2, “Percutaneous absorption type cerebral protective agent” (Lead Chemical Co., Ltd,, priority 2003, dated 2011)
